Assay results reported in ChEMBL document CHEMBL3507680, “University of Dundee, Gates Library screen for HepG2 cell viability”.

Assay: Human HepG2 cell viability assay in 384 well format
Format: toxicity, cell-based
Set-up: dose 125 nL, time 70.5 hour; concentration not given beside the values
Settings: HepG2 cells, read-out: Inhibition

SMILES	cytotoxicity at 70.5 h [%]
c1cc(CN2CCCn3cnc(COCC4CC4)c3C2)ccn1	-2.95
CC(C)N(CCNC(=O)N1CCCC(N(C)C)C1)C1CC1 (centres undefined)	13.5
CN1CC(c2ccccc2)CC12CCN(C(=O)c1ccc(Cl)cc1)CC2 (centres undefined)	7.42
CCCN(C)CC1CCN(c2ccc(Br)c(C)n2)C1 (centres undefined)	4.09
O=C(NC1CC1)[C@@]12CCO[C@@H]1CCN(Cc1ccc3c(c1)OCO3)C2	2.54
Cc1noc(C)c1-c1nc(N(C)C)ncc1-c1cnccn1	-5.02
O=C(c1cc(Cl)ccc1OC1CCN(C2CCCC2)CC1)N1CC(O)C1	11.8
CC(C)N(C)Cc1cnc2n1CCN(Cc1ccco1)C2	-14
NC(=O)c1ccc(OCCCN2C[C@H](C3CC3)[C@@H](N)C2)cc1	-5.8
Cc1cc(C2CCCN(C(=O)c3cccnc3)C2)ccn1 (centres undefined)	-11.1
CN(Cc1cn2c(n1)CN(C(N)=O)CC2)Cc1ccco1	-1.71
OC(CN1CCN(c2ncccn2)CC1)c1cccc(F)c1 (centres undefined)	-9.46
O=C(N1CCC(OCc2ccccn2)CC1)C1(c2ccc(F)cc2)CC1	-0.41
Nc1nc(CCC(=O)N2CCOC(CC3CCCCC3)C2)cs1 (centres undefined)	-2.5
COc1cccc(NC(=O)c2cc3c([nH]c2=O)CCCC3=O)c1	-8.19
CCN1CCC(NC(=O)CN2CCCC(NS(C)(=O)=O)C2)CC1 (centres undefined)	-10.1
NC(=O)c1cccc(CC2CCN(C(=O)Cn3cnnn3)C2)c1 (centres undefined)	-10.5
CN(C)Cc1cn2c(n1)CN(CC1CCCC1)CC2	-6.79
COc1ccc(C)cc1CN(Cc1ncc(C)o1)C1CCN(C)C1 (centres undefined)	14.5
COc1coc(C(=O)Nc2nc(-c3ccccn3)cs2)cc1=O	-7.13
c1cncc(CN(Cc2ccc(-n3ccnc3)cc2)CC2CCCO2)c1 (centres undefined)	13.2
Cc1ccsc1-c1nc(CN(C)Cc2cc[nH]n2)c(C)o1	12.8
COCCN(Cc1cnn(C)c1)CC1CCOC1 (centres undefined)	-6.85

SMILES	cytotoxicity at 70.5 h [%]
COCCN1CC[C@@H]2OC[C@H](C(=O)NCc3cccs3)C[C@@H]2C1	10.1
Cc1ccccc1[C@@H]1CN(C(=O)c2ccc3[nH]nnc3c2)C[C@H]1C(=O)O	-4.82
c1cc(CN2C[C@@H]3OCCN(CCN4CCCC4)[C@@H]3C2)cs1	-8.5
Cn1cnc(S(=O)(=O)N2CCCc3cccc(F)c32)c1Cl	-0.174
COC1(CNS(=O)(=O)c2ccccc2Cl)CCSC1 (centres undefined)	-7.26
Cn1ccnc1CN1CCC2(CC1)CN(c1ccccn1)CCO2	8.31
COc1ccccc1CNC(Cc1cccs1)c1nc(C)cs1 (centres undefined)	3.54
CC(C)OCCN1CCN(c2ccc(Cl)cn2)CC1	-6.76
N#Cc1cc(F)ccc1Cn1cncn1	-9.13
Cc1cccnc1CNC(=O)NC(C)Cc1c(C)nn(C)c1C (centres undefined)	-5.5
Cc1c(C(=O)NC(C)C(C)C)nnn1-c1cccc2c1CCN(C)C2 (centres undefined)	5.93
COc1ccc(C)cc1CN(CC(N)=O)C(C)C	-3.29
CCc1nc(N2CCC3(CCC(=O)N(Cc4ccncc4)C3)CC2)no1	10.6
CCCc1n[nH]c(C2CN(Cc3nnc(C4CCC4)o3)CCO2)n1 (centres undefined)	-5.35
O=S(=O)(NCc1ccccc1)NCc1nc(-c2ccncc2)n[nH]1	-5.68
CC(C)CN1C(=O)CO[C@@H]2CN(C(=O)[C@H]3CCCO3)C[C@H]21	-1.2
O=C(O)[C@@H]1CN(CC(=O)N2CCCCCC2)C[C@H]1c1ccc(F)cc1	-5.12
Cn1c(C(N)=O)cc2c1CN(C(=O)C1CC(=O)N(C(C)(C)C)C1)CC2 (centres undefined)	-2.03
Cc1ncsc1CCN(C)C(=O)CN1CCCCCC1=O	-2.38
CCCC1(CNCc2ncc[nH]2)CCC1	-8.95
COc1ccc(C(=O)N2CCN(c3cc(CCN)nc(C)n3)CC2)cc1	-0.395
Cc1c(CN2C[C@@H](O)[C@H](Oc3cccc(F)c3)C2)cnn1C	-10.7
CCC(=O)N1CCC(Cc2ccccc2-c2ccccc2F)(C(N)=O)C1 (centres undefined)	-8.54

SMILES	cytotoxicity at 70.5 h [%]
OC1CCCN(CCNc2ncc(Cl)cc2F)C1 (centres undefined)	16.2
O=C(CCc1ccncc1)NCc1csc(Br)c1	-7.74
CN1CCOC(CNC(=O)C2(c3cccc(Cl)c3)CC2)C1 (centres undefined)	-5.99
COc1cccn(C(C)C(=O)NC2CCCC2)c1=O (centres undefined)	-1.93
CCc1nc(CN2CCCN(CC(=O)Nc3cccnc3)CC2)no1	8.11
CCCc1nnc(SCc2cc(=O)n3c4c(sc3n2)CCCC4)[nH]1	-6.9
CS(=O)(=O)NCCNC(=O)C1(c2cccc(Cl)c2)CC1	-4.01
Cc1cccc(N2CCOCC3(C2)CN(c2cnn(C)c2)C(=O)CO3)n1 (centres undefined)	16.9
Cc1nc(CCNC(=O)NC2CCN(c3ncccn3)CC2)cs1	-8.38
CC(=O)N1CCC(c2ccnc(Nc3cc(C(F)(F)F)ccn3)n2)C1 (centres undefined)	19.8
Cc1cccc(CCC(=O)Nc2cccnc2N2CCC(O)CC2)c1	1
Cc1nccn1CC1CCCN1S(=O)(=O)Cc1cccc(C#N)c1 (centres undefined)	29.1
CNC(=O)C1CNCCN1C(=O)c1ccc(C(F)(F)F)nc1C (centres undefined)	-5.69
COCCCNS(=O)(=O)c1ccc2c(c1)NC(=O)C(C)O2 (centres undefined)	1.94
COc1cccc(-c2nc3c([nH]2)CC(C)(C)CNC3=O)c1OC	-9.59
O=C(O)CCc1cc2n(n1)CCCN(C(=O)c1ccc(Cl)s1)C2	-22.4
CN(Cc1cscn1)C1CCCN(c2cccnn2)C1 (centres undefined)	18
COCC(C)(NC(=O)c1cc(Cl)c(-n2cccc2)cc1OC)C(N)=O (centres undefined)	-2.57
CN1CCCC1c1cncc(C(=O)NCCN2CCCC2)n1 (centres undefined)	-14.2
CCC(NC(=O)c1cccc2cc[nH]c12)C(=O)N1CCOCC1 (centres undefined)	-11.2
O=C1O[C@@H]2CN(Cc3cccc(F)c3)C[C@@H]2N1CCCN1CCOCC1	9.24
O=C(CCn1cc(Cl)cn1)N1CCN(CCOc2ccccc2)CC1	-4.12
Cc1cc(NC(=O)c2ccc(N3CCOCC3)cc2)[nH]n1	-1.56

SMILES	cytotoxicity at 70.5 h [%]
NC(=O)COc1ccc(CN2CC[C@@]3(O)CCCC[C@H]3C2)cc1Cl	-2.71
CC1CN(CC(=O)Nc2cccnc2)CCN1c1nccs1 (centres undefined)	-12.4
NC(=O)NC(=O)CN1CCN(CC2CC2)c2ccccc21	8.16
c1cc(-c2cc(C3CCN(Cc4cncnc4)C3)ccn2)ccn1 (centres undefined)	0.319
Nc1cc2c(nn1)CCN(C(=O)CC1CCCC1)C2	3.78
COc1cccc2c(C)c(C(=O)N3CCNCC3C(N)=O)[nH]c12 (centres undefined)	-7.8
CCC(=O)N1CCc2onc(CNS(C)(=O)=O)c2C1	9.89
Cc1occc1C(=O)N1CC[C@@H](N2CCOCC2)[C@@H]1Cc1ccccc1	-7.85
CC(=O)Nc1ccc(Oc2ccc(CN3CCCC3)cc2F)cc1	-3.88
COc1ccc(C)cc1NC(=O)C1CSc2ncc(C)c(=O)n2C1 (centres undefined)	8.57
O=C(NCc1cccs1)NCC1(O)CCc2ccccc2C1 (centres undefined)	-5.04
CN1C[C@@H](N)C[C@H]1c1nc(-c2ccc3c(c2)OCO3)no1	-1.52
c1ccc(-c2cnc(CN3CCCC3Cn3cccn3)o2)cc1 (centres undefined)	1.69
Cn1cc(CN2CCCN(C(=O)c3ccccn3)CC2)cn1	-1.29
CCc1nn(C)c(Cl)c1CN1CCC(c2cc(O)nc(C)n2)CC1	-10.5
CC(C)C(N)C1=N/C(=C2\N=CN=N2)NO1 (centres undefined)	5.13
Cc1noc(CCCC(=O)N(CC2CCOC2)C2CC2)n1 (centres undefined)	-11
CC(=O)N1CCCn2nc(CNS(=O)(=O)N3CCC(C)CC3)cc2C1	-11.6
COC1CCCN(C(=O)NCC(C)(C)SC)C1 (centres undefined)	-11.6
Cc1nccn1CC1CCCN1S(=O)(=O)Cc1cccc(F)c1 (centres undefined)	18.7
CCc1nc(CS(=O)(=O)Cc2noc(C3CC3)n2)cs1	-1.78
O=C(c1cncc(NCC2COc3ccccc3C2)n1)N1CCOCC1 (centres undefined)	-7.07
COc1ccccc1N1CCN(C(=O)CSC(C)C)C(C)C1 (centres undefined)	-3.04

SMILES	cytotoxicity at 70.5 h [%]
COc1ccc(C)nc1NC(=O)CCc1c(C)nn(C)c1C	6.42
CCn1ccc(-c2cc(NCCCOc3ccccc3C)nc(C)n2)n1	-1.9
Cc1cnc(N2CCCC3(COCCN(c4nccs4)C3)C2)nc1 (centres undefined)	-8.41
Cc1cc2nc(CO[C@H]3CN(C4CCCCC4)C[C@H]3F)[nH]c2cc1C	3.34
Cc1cc(C2CCCN2CCC(=O)N2CCc3sccc3C2)no1 (centres undefined)	1.59
c1cnc(Nc2cc(CCC3CCNCC3)ccn2)cn1	5.45
O=c1[nH]cnc2c1CCN(S(=O)(=O)c1ccc(Cl)cc1)C2	-11.8
CCc1oc(C(=O)NCCc2cc(O)nc(C)n2)cc1CN1CCCC1	-6.98
CN(Cc1ccc(O)cc1)C(=O)NCc1nnc2n1CCCCC2	-2.24
COCCc1noc(Cn2ccc3ncccc3c2=O)n1	-7.6
CCS(=O)(=O)Nc1ccn(Cc2cccc(F)c2)n1	-11.5
CCN(CC)c1ncc(S(=O)(=O)c2cccc(C)c2)c(N)n1	25.6
Cc1ccccc1-c1cc(NC(=O)Cn2ccccc2=O)n(C)n1	-0.508
CN1CC2(CCN(C(=O)c3ccc(-n4cnnc4)cc3Cl)CC2)OC1=O	-4.9
CCc1nnc2n1CCN(C(=O)c1ccnc(N(C)C)c1)C2	-2.04
Nc1ccnc(N2CCCC(CCc3ccccc3)(C(=O)O)C2)n1 (centres undefined)	-3.28
CC(c1nc(C2CC2)no1)N1CCN(CCn2ccccc2=O)CC1 (centres undefined)	-4.93
CC(C)(C)C(O)CN1CCN(C(=O)c2ccc3c(c2)COC3)CC1 (centres undefined)	10.4
COc1ccc(Cl)cc1C(=O)N1C[C@H](C(C)C)[C@@H](N)C1	3.26
CC(C)(C)c1ccc2c(c1)CCN2C(=O)c1[nH]c(=O)[nH]c(=O)c1N	-6.44
COc1ccccc1COCC(O)CN1CCC(c2ccn[nH]2)CC1 (centres undefined)	-8.12
Cc1cc(-c2nn(C)c(Cl)c2CN2CCC3(CC2)[C@H](O)C[C@@H]3O)no1	-4.3
